This note sets out measurements from PubChem BioAssay AID540258 (Broad Institute, 2011).

Each structure is given as a SMILES string. Calls of active or inactive are those of the source.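 The calls were made as follows: active = fitted curve reaching 40% activation at or below the top valid dose tested; inconclusive = flat curve at 30 to 70% activation, or poor fit; inactive = the rest.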

This assay concerns SK-MEL-5 TRPM1 promoter luciferase reporter, 24 h. Description: activation of TRPM1 promoter luciferase in melanoma cells – SK-MEL-5 cells, cherry-pick samples, dose response (AID 540258).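 Also: potency for activators that raise TRPM1 promoter luciferase signal.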
Consider `C1=C(c2cc3ccccc3cn2)CCCC1`, for which the AC40 is 1.08 µM.

Take `CCc1ccc(C(=O)N/N=C(\C)c2cccnc2)s1`: the AC40 was 8.9 µM.

`C=CCN=C1S/C(=C\c2ccc(N(C)C)cc2)C(=O)N1CC=C`: the AC40 was 21.5 µM.

With `Cc1nn(C(=O)c2cccs2)c(N)c1-c1ccccc1`, the AC40 is 1.38 µM.

For `COC(=O)c1c(C)[nH]c(/C=N/Nc2ccccc2)c1C`, the AC40 is > 35 µM (inactive).

Regarding `CC(C)C(=O)Nc1cccc(-c2cnc3ccccc3n2)c1`, the AC40 was 17.3 µM.

`C/C(=N\Nc1ccc(C(=O)O)cc1)c1ccc2c(c1)Nc1ccccc1S2`: the AC40 is 12.8 µM.

As for `COc1ccc(-c2nn(-c3ccccc3)cc2C#N)cc1`, the AC40 was 3.24 µM.

Regarding `CCCc1cc(C(=O)Nc2cc(Cl)ccc2O)no1`, the AC40 was 2.99 µM.

Regarding `CC(=O)c1cnc2nc(SCc3ccccc3)nn2c1C`, the AC40 is 2.29 µM.

In the case of `Cn1c2ccccc2c(=O)c2ccc(-c3ccc4c(c3)OCO4)cc21`, the AC40 is 0.851 µM.

Take `COc1ccc2c(c1)CC/C2=N\OC(=O)c1ccccc1C`: the AC40 was 1.27 µM.

In the case of `CN(CCC#N)C(=O)c1cc2c(s1)-c1ccccc1SC2`, the AC40 was 3.23 µM.

Turning to `O=C(Nc1ccc(OC(F)F)c(Cl)c1)c1ccccn1`, the AC40 was 0.461 µM.

With `Oc1ccc(N=Nc2ccccc2)cc1`, the AC40 was 3.98 µM.

Take `CC(C)(C)c1csc(N/N=C/c2ccc(O)cc2)n1`: the AC40 was 17.8 µM.

Regarding `COc1ccc2ccccc2c1/C=N/Nc1cccc(C(=O)O)c1`, the AC40 is 13.1 µM.

Turning to `COc1ccc(-n2nc(C(=O)NCC(=O)N3CCN(c4ccccc4)CC3)c3ccccc3c2=O)c(OC)c1`, the AC40 is 4.77 µM.

Turning to `CCCN(Cc1ccc(C)cc1)C(=O)c1ccc(CNS(=O)(=O)c2ccc(C(C)=O)cc2)cc1`, the AC40 was > 35 µM (inactive).

On to `Cc1nc(C(=O)Nc2ccccc2)sc1C(=O)Nc1ccccc1`, for which the AC40 is 3.89 µM.

For `O=C(Nc1ccc(Cl)c(Cl)c1)OCc1cccnc1`, the AC40 is 7.44 µM.

As for `COc1ccc(-c2nnc(-c3ccc4ccccc4c3)o2)cc1`, the AC40 is 4.3 µM.

`CC(C)c1ccc2nc(N)sc2c1`: the AC40 is > 35 µM (inactive).

Turning to `COC(=O)c1ccc(N=NN2CCCCC2)cc1`, the AC40 is 1.34 µM.

Regarding `COc1ccccc1-c1cnn2c(NC3CCCC3)cc(C)nc12`, the AC40 is 4.09 µM.

On to `C/C(=N\Nc1ccccn1)c1ccc(C(C)C)cc1`, for which the AC40 is 4.34 µM.

Regarding `CCCCN1C(=O)/C(=C/C=C2\SCCN2C)SC1=S`, the AC40 is 5.57 µM.

Take `O=C(Nc1cccnc1)c1cc(-c2ccc(Cl)cc2)on1`: the AC40 is 15.3 µM.

For the compound `COc1cccc2cc(CC(=O)c3ccc(C)cc3C)c(=O)oc12`, the AC40 was 11.9 µM.

`COc1cc(CNCc2ccccn2)ccc1OCc1ccc(Cl)c(Cl)c1`: the AC40 was 9.74 µM.

For the compound `COc1ccc(NC(=O)CCCn2c(=O)oc3ccccc32)cc1Cl`, the AC40 is 3.94 µM.

Take `CCN(CC)C(=O)c1cc(-c2ccc(Br)cc2)on1`: the AC40 was 1.63 µM.

Take `CCC(C)NC(=O)c1cc(-c2ccc(OC)cc2)on1` (stereo not given): the AC40 is 0.773 µM.

Take `COc1ccc(-c2noc(-c3cccc(OC)c3OC)n2)cc1OC`: the AC40 was 1.33 µM.

In the case of `Nc1nc(COc2ccc3ccccc3c2)cs1`, the AC40 is 4.97 µM.

With `CC(=O)Nc1ccc2c(c1)ncn2-c1ccccc1`, the AC40 is 2.76 µM.

Regarding `COc1ccc(Oc2ncnc3sccc23)cc1`, the AC40 is 6.05 µM.

As for `O=C(Cc1ccccc1F)Nc1ccc(SC(F)F)cc1`, the AC40 is 1.98 µM.

On to `O=c1nc(/C=C/c2ccc(O)c(O)c2)oc2ccccc12`, for which the AC40 is 6.32 µM.

On to `COc1cccc(-c2cc(C(=O)Nc3ccccc3SC)no2)c1`, for which the AC40 was > 35 µM (inactive).

In the case of `Nc1ccc(-c2nnc(-c3ccc(N)cc3)o2)cc1`, the AC40 is 2.45 µM.

As to `Cc1ccc(NC(=O)Nc2ccc3c(c2)OCO3)c(OC(F)F)c1`, the AC40 was 2.14 µM.

Take `N#C/C(=N\Nc1ccccc1F)C(=N)N1CCCCC1`: the AC40 is 2.13 µM.

As to `COc1ccc(-c2c(C)nc3c(-c4ccsc4)cnn3c2N)cc1`, the AC40 was 0.302 µM.

`Brc1ccc(/C=N/Nc2ccccc2)cc1`: the AC40 was 15.4 µM.

For `CCCn1nnc(NC(=O)c2ccc(-c3ccccc3)cc2)n1`, the AC40 is 2.69 µM.

On to `Oc1[nH]c2ccccc2c1C=Nc1ccccc1`, for which the AC40 is 5.55 µM.

Turning to `COc1ccccc1C(=O)NCC(=O)Nc1ccc2c(c1)CCC2`, the AC40 was 2.42 µM.

`O=C(c1ccc(F)cc1)c1ccc(N2CCCCC2)cc1`: the AC40 is 1.49 µM.

Take `C/C(=N\O)c1ccc(N2C(=O)C3CC=C(Cl)CC3C2=O)cc1` (stereo not given): the AC40 was 3.5 µM.

`CSc1nccc(N/N=C/c2ccccc2)n1`: the AC40 was 0.491 µM.

With `C=CCNc1nc(-c2ccc(Cl)cc2)cs1`, the AC40 is 0.639 µM.

As for `Cc1ccc(NC(=O)Nc2ccc3c(c2)N(C)C(=O)CS3)nc1`, the AC40 is 6.65 µM.

Take `COC(=O)C1CCCCN1C(=O)c1ccc2oc(Cc3ccccc3)nc2c1` (stereo not given): the AC40 is 3.18 µM.

For `CCCC(=O)N1c2ccc(-c3csc(N)n3)cc2CC1C` (stereo not given), the AC40 was 1.65 µM.

As to `N#Cc1ccsc1NC(=O)CCc1ccccc1`, the AC40 was 9.77 µM.

Take `C/C(=N/NC(=O)c1ccncc1)c1ccc(NC(=O)c2ccc(Cl)cc2Cl)cc1`: the AC40 was > 35 µM (inactive).

`Cc1ccc(NC(=O)N2CCc3ccccc3C2)cc1C`: the AC40 was 4.47 µM.

Regarding `COC(=O)c1ccc(Nc2ncnc3sccc23)cc1`, the AC40 was 7.47 µM.

As to `Cc1ccc(NC(=O)CCCc2ccccc2)nc1`, the AC40 was 5.72 µM.

With `Cc1cccc(C(=O)Nc2ccn(C)n2)c1`, the AC40 was 24.4 µM.

Regarding `COc1ccc2c(c1OC)C(=O)N(c1ccc(C)cc1)C2`, the AC40 is 12.3 µM.

Consider `Cc1ccc(NC(=O)c2sc3nc(C)cc(C)c3c2N)cc1`, for which the AC40 is 0.205 µM.

In the case of `O=C(Nc1ccc(-c2nc3cccnc3s2)cc1)c1ccc(Cl)nc1`, the AC40 is 2.11 µM.

As for `c1ccc(CSc2ccc(-c3ccc4c(c3)OCO4)nn2)cc1`, the AC40 is 2.38 µM.

As for `O=C(NCc1ccccn1)Nc1ccc(Br)cc1Cl`, the AC40 is 14.3 µM.

With `CCc1ccc(N2Cc3ccccc3C2)cc1`, the AC40 is 2.25 µM.

Regarding `Cc1nc2c3cnn(-c4ccc(C)c(C)c4)c3ncn2n1`, the AC40 is 0.921 µM.

`COc1cc(/C=N/O)ccc1OCc1ccccc1Cl`: the AC40 was 0.744 µM.

For `Cc1ccc(Nc2nnc(-c3ccccc3N)o2)cc1C`, the AC40 is 1.59 µM.

Turning to `Oc1ccc(-c2nccc(-c3ccccn3)n2)cc1`, the AC40 was 4.35 µM.

For the compound `COc1cccc2[nH]c(=O)c(-c3ccccc3)cc12`, the AC40 is 1.72 µM.

Take `Cc1ccnc(NC(=O)c2ccc(S(=O)(=O)N3CCC(C)CC3)cc2)c1`: the AC40 was 7.76 µM.

In the case of `COC(=O)/C(=C1\Oc2ccc(C(C)(C)C)cc2S1)C(F)(F)F`, the AC40 was 3.81 µM.

Turning to `O=C(Nc1ccccn1)c1ccccc1`, the AC40 was 14.8 µM.

`CS(=O)(=O)N1N=C(c2ccc(Br)cc2)CC1c1ccc2c(c1)OCO2` (stereo not given): the AC40 is 2.95 µM.

For the compound `CCCCN(C(=O)Cc1cccs1)c1nnc(-c2cccnc2)s1`, the AC40 was 5.05 µM.

Regarding `CCS(=O)(=O)Nc1ccc(C(=O)NCCSc2ccccc2)cc1`, the AC40 was 34.6 µM.

Take `CC(=O)c1cccc(NC(=O)c2cc3nc(C)cc(C)n3n2)c1`: the AC40 is 2.7 µM.

Turning to `CC(C)(C)c1ccc(-c2cc(C(=O)NNC(=O)Nc3ccccc3)c3ccccc3n2)cc1`, the AC40 was 3.33 µM.
